Laboratory results as given in patent US6737383B1, “Herbicidal oxadiazolidines” (priority 1999, dated 2004).

What was measured:
common ragweed = test: Test D common ragweed; assay type: in vivo, Ambrosia elatior; conditions: Preemergence, 0 to 100 scale
How it was run: (§1)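 Values are visual plant-response ratings (0 no injury, 100 complete control) recorded 14 to 21 days after herbicide treatment, using a non-phytotoxic solvent mixture containing surfactant. Preemergence applications went to the surface of pots holding freshly sown seed in sandy loam.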

Spanishneedles = test: Test D Spanishneedles; assay type: in vivo, Bidens bipinnata; conditions: Preemergence, 0 to 100 scale
How it was run: as §1

guineagrass = test: Test D guineagrass; assay type: in vivo, Panicum maximum; conditions: Preemergence, 0 to 100 scale
How it was run: as §1

dallisgrass = test: Test D dallisgrass; assay type: in vivo, Paspalum dilatatum; conditions: Preemergence, 0 to 100 scale
Text: (§2) Seeds, tubers, or plant parts of Alexandergrass (Brachiaria plantaginea), bermuda-grass (Cynodon dactylon), common pursiane (Portulaca oleracea), common ragweed (Ambrosia elatior), common groundsel (Senecio vulgaris), dallisgrass (Paspalum dilatatum), goosegrass (Eleusine indica), guineagrass (Panicum maximum), itchgrass (Rottboellia exaltata), Johnson grass (Sorghum halepense), large crabgrass (Digitaria sanguinalis), pitted morningglory (Ipomoea lacunosa), purple nutsedge (Cyperus rotundus), sandbur (Cenchrus echinatus), sourgrass (Trichachne insularis), Spanishneedles (Bidens bipinnata), surinam grass (Brachiaria decumbens) and tall mallow (Malva sylvestris) were planted into greenhouse pots of flats containing greenhouse planting medium. Plant species were grown in separate pots or individual compartments. Preemergence applications were made within one day of planting the seed or plant part.
(§3) Test chemicals were formulated in a non-phytotoxic solvent mixture which included a surfactant and applied preemergence to the surface of the pot containing seeds in a sandy loam soil. Untreated control pots and treated pots were placed in the greenhouse for growth and visually evaluated for injury 14 to 21 days after herbicide application. Plant response ratings, summarized in Table C, are based on a 0 to 100 scale where 0 is no injury and 100 is complete control. A dash (−) response means no test result.

common groundsel = test: Test D common groundsel; assay type: in vivo, Senecio vulgaris; conditions: Preemergence, 0 to 100 scale
Text: as §2, §3

goosegrass = test: Test D goosegrass; assay type: in vivo, Eleusine indica; conditions: Preemergence, 0 to 100 scale
How it was run: as §1

sandbur = test: Test D sandbur; assay type: in vivo, Cenchrus echinatus; conditions: Preemergence, 0 to 100 scale
How it was run: as §1

surinam grass = test: Test D surinam grass; assay type: in vivo, Brachiaria decumbens; conditions: Preemergence, 0 to 100 scale
Text: as §2, §3

pitted morningglory = test: Test D pitted morningglory; assay type: in vivo, Ipomoea lacunosa; conditions: Preemergence, 0 to 100 scale
How it was run: as §1

tall mallow = test: Test D tall mallow; assay type: in vivo, Malva sylvestris; conditions: Preemergence, 0 to 100 scale
Text: as §2, §3

Alexandergrass = test: Test D Alexandergrass; assay type: in vivo, Brachiaria plantaginea; conditions: Preemergence, 0 to 100 scale
Text: as §2, §3

large crabgrass = test: Test D large crabgrass; assay type: in vivo, Digitaria sanguinalis; conditions: Preemergence, 0 to 100 scale
How it was run: as §1

purple nutsedge = test: Test D purple nutsedge; assay type: in vivo, Cyperus rotundus; conditions: Preemergence, 0 to 100 scale
Text: as §2, §3

common pursiane = test: Test D common purslane; assay type: in vivo, Portulaca oleracea; conditions: Preemergence, 0 to 100 scale
How it was run: as §1

Green foxtail = test: Test D green foxtail; assay type: in vivo
How it was run: as §1

[1] = Rate 64 g/ha, 0 no injury, 100 complete control
[2] = Rate 64 g/ha, Preemergence; 0 to 100 scale, 0 no injury, 100 complete control
[3] = Rate 16 g/ha, 0 no injury, 100 complete control
[4] = Rate 32 g/ha, 0 no injury, 100 complete control
[5] = Rate 125 g/ha, 0 no injury, 100 complete control
[6] = Rate 125 g/ha, Preemergence; 0 to 100 scale, 0 no injury, 100 complete control

Compound: CCCn1c(=O)on(C(=O)N(c2ccc(F)cc2F)C(C)C)c1=O [Compound 130]
- Plant response rating, C. ragweed (common ragweed; [1]): 30
- Spanishneedles plant response rating (Spanishneedles; [1]): 60
- Plant response rating, Guineagrass (guineagrass; [1]): 100
- Plant response rating, Dallisgrass (dallisgrass; [1]): 100
- Plant response rating, Com. groundsel (common groundsel; [1]): 0
- Plant response rating, Goosegrass (goosegrass; [1]): 100
- Sandbur plant response rating (sandbur; [1]): 100
- Surinam grass plant response rating (surinam grass; [1]): 80
- Plant response rating, P. morninglory (pitted morningglory; [1]): 65
- Tall Mallow plant response rating (tall mallow; [1]): 85
- Plant response rating, Alexandergrass (Alexandergrass; [1]): 98
- Plant response rating Large crabgrass (large crabgrass; [1]): 100
- Purple nutsedge plant response rating (purple nutsedge; [1]): 0
- Plant response rating, C. purslane (common pursiane; [1]): 0
- Green foxtail plant response rating (Green foxtail; [2]): 100
- Plant response rating, Green foxtail (Green foxtail; [2]): 100

Compound: C=CCn1c(=O)on(C(=O)N(c2ccc(F)cc2F)C(C)C)c1=O [Compound 151]
- Plant response rating, C. ragweed (common ragweed; [3]): 0
- Plant response rating, C. ragweed (common ragweed; [4]): 0
- Plant response rating, C. ragweed (common ragweed; [1]): 0
- Plant response rating, C. ragweed (common ragweed; [5]): 0
- Plant response rating, C. ragweed (common ragweed; Rate 250 g/ha): 20
- Plant response rating, C. ragweed (common ragweed; Rate 500 g/ha): 20
- Plant response rating, Spanishneedles (Spanishneedles; [3]): 0
- Plant response rating, Spanishneedles (Spanishneedles; [4]): 0
- Spanishneedles plant response rating (Spanishneedles; [1]): 0
- Spanishneedles plant response rating (Spanishneedles; [5]): 0
- Plant response rating, Spanishneedles (Spanishneedles; Rate 250 g/ha): 0
- Plant response rating, Spanishneedles (Spanishneedles; Rate 500 g/ha): 40
- Plant response rating, Guineagrass (guineagrass; [3]): 85
- Plant response rating, Guineagrass (guineagrass; [4]): 90
- Plant response rating, Guineagrass (guineagrass; [1]): 100
- Plant response rating, Guineagrass (guineagrass; [5]): 100
- Plant response rating, Guineagrass (guineagrass; Rate 250 g/ha): 100
- Plant response rating, Guineagrass (guineagrass; Rate 500 g/ha): 100
- Plant response rating, Dallisgrass (dallisgrass; [3]): 100
- Plant response rating, Dallisgrass (dallisgrass; [4]): 85
- Plant response rating, Dallisgrass (dallisgrass; [1]): 100
- Plant response rating, Dallisgrass (dallisgrass; [5]): 100
- Plant response rating, Dallisgrass (dallisgrass; Rate 250 g/ha): 100
- Plant response rating, Dallisgrass (dallisgrass; Rate 500 g/ha): 100
- Plant response rating, Com. groundsel (common groundsel; [3]): 0
- Plant response rating, Com. groundsel (common groundsel; [4]): 0
- Plant response rating, Com. groundsel (common groundsel; [1]): 0
- Plant response rating, Com. groundsel (common groundsel; [5]): 100
- Plant response rating, Com. groundsel (common groundsel; Rate 250 g/ha): 100
- Plant response rating, Com. groundsel (common groundsel; Rate 500 g/ha): 100
- Plant response rating, Goosegrass (goosegrass; [3]): 85
- Plant response rating, Goosegrass (goosegrass; [4]): 85
- Plant response rating, Goosegrass (goosegrass; [1]): 100
- Plant response rating, Goosegrass (goosegrass; [5]): 100
- Plant response rating, Goosegrass (goosegrass; Rate 250 g/ha): 100
- Plant response rating, Goosegrass (goosegrass; Rate 500 g/ha): 100
- Plant response rating, Sandbur (sandbur; [3]): 0
- Plant response rating, Sandbur (sandbur; [4]): 20
- Sandbur plant response rating (sandbur; [1]): 90
- Sandbur plant response rating (sandbur; [5]): 100
- Plant response rating, Sandbur (sandbur; Rate 250 g/ha): 100
- Plant response rating, Sandbur (sandbur; Rate 500 g/ha): 100
- Plant response rating, Surinam grass (surinam grass; [3]): 30
- Plant response rating, Surinam grass (surinam grass; [4]): 30
- Surinam grass plant response rating (surinam grass; [1]): 85
- Surinam grass plant response rating (surinam grass; [5]): 100
- Plant response rating, Surinam grass (surinam grass; Rate 250 g/ha): 100
- Plant response rating, Surinam grass (surinam grass; Rate 500 g/ha): 100
- Plant response rating, P. morninglory (pitted morningglory; [3]): 0
- Plant response rating, P. morninglory (pitted morningglory; [4]): 0
- Plant response rating, P. morninglory (pitted morningglory; [1]): 0
- Plant response rating, P. morninglory (pitted morningglory; [5]): 0
- Plant response rating, P. morninglory (pitted morningglory; Rate 250 g/ha): 0
- Plant response rating, P. morninglory (pitted morningglory; Rate 500 g/ha): 20
- Plant response rating, Tall Mallow (tall mallow; [3]): 0
- Plant response rating, Tall Mallow (tall mallow; [4]): 0
- Tall Mallow plant response rating (tall mallow; [1]): 0
- Tall Mallow plant response rating (tall mallow; [5]): 75
- Plant response rating, Tall Mallow (tall mallow; Rate 250 g/ha): 85
- Plant response rating, Tall Mallow (tall mallow; Rate 500 g/ha): 85
- Plant response rating, Alexandergrass (Alexandergrass; [3]): 40
- Plant response rating, Alexandergrass (Alexandergrass; [4]): 40
- Plant response rating, Alexandergrass (Alexandergrass; [1]): 98
- Plant response rating, Alexandergrass (Alexandergrass; [5]): 98
- Plant response rating, Alexandergrass (Alexandergrass; Rate 250 g/ha): 100
- Plant response rating, Alexandergrass (Alexandergrass; Rate 500 g/ha): 100
- Plant response rating Large crabgrass (large crabgrass; [3]): 98
- Plant response rating Large crabgrass (large crabgrass; [4]): 98
- Plant response rating Large crabgrass (large crabgrass; [1]): 100
- Plant response rating Large crabgrass (large crabgrass; [5]): 100
- Plant response rating Large crabgrass (large crabgrass; Rate 250 g/ha): 100
- Plant response rating Large crabgrass (large crabgrass; Rate 500 g/ha): 100
- Plant response rating, Purple nutsedge (purple nutsedge; [3]): 0
- Plant response rating, Purple nutsedge (purple nutsedge; [4]): 0
- Purple nutsedge plant response rating (purple nutsedge; [1]): 0
- Purple nutsedge plant response rating (purple nutsedge; [5]): 30
- Plant response rating, Purple nutsedge (purple nutsedge; Rate 250 g/ha): 65
- Plant response rating, Purple nutsedge (purple nutsedge; Rate 500 g/ha): 70
- Plant response rating, C. purslane (common pursiane; [3]): 0
- Plant response rating, C. purslane (common pursiane; [4]): 0
- Plant response rating, C. purslane (common pursiane; [1]): 0
- Plant response rating, C. purslane (common pursiane; [5]): 0
- Plant response rating, C. purslane (common pursiane; Rate 250 g/ha): 0
- Plant response rating, C. purslane (common pursiane; Rate 500 g/ha): 0
- Plant response rating, Green foxtail (Green foxtail; Preemergence; Rate 16 g/ha; 0 to 100 scale, 0 no injury, 100 complete control): 100
- Plant response rating, Green foxtail (Green foxtail; Preemergence; Rate 32 g/ha; 0 to 100 scale, 0 no injury, 100 complete control): 100
- Plant response rating, Green foxtail (Green foxtail; Rate 16 g/ha; Preemergence; 0 to 100 scale, 0 no injury, 100 complete control): 100
- Plant response rating, Green foxtail (Green foxtail; Rate 32 g/ha; Preemergence; 0 to 100 scale, 0 no injury, 100 complete control): 75
- Green foxtail plant response rating (Green foxtail; [2]): 100
- Plant response rating, Green foxtail (Green foxtail; [2]): 100
- Green foxtail plant response rating (Green foxtail; [6]): 100
- Plant response rating, Green foxtail (Green foxtail; [6]): 100
- Plant response rating, Green foxtail (Green foxtail; Rate 250 g/ha; Preemergence; 0 to 100 scale): 100
- Plant response rating, Green foxtail (Green foxtail; Rate 500 g/ha, Preemergence; 0 to 100 scale): 100
